Experiment: DPPH assay of antioxidative (antiradical) activity
Conditions: measured in EC50 and 1/EC50 values
From the text: For tests of antioxidative activity, the DPPH assay is used. DPPH (2,2-Diphenyl-1-picrylhydrazyl) is a stable radical, which absorbs in its radical form at 515 nm. Upon reduction by an antioxidant (AH), the absorption disappears:
The rate of reaction (1) can be rather different for different antioxidants. In the case of the vitamins C and E, the equilibrium is reached in several minutes, however for other antioxidants it may also take hours. In the test, the ratio of the molar concentrations of the antioxidant and DPPH is varied (this ratio is named “EC”=efficient concentration), and the concentration of DPPH in the equilibrium state is measured for each ratio. Antiradical activity is defined as the amount of antioxidant necessary to decrease the initial DPPH-concentration by 50%, and is characterized by the so-called EC50 value. The smaller the EC50 value, the more efficient is the antioxidant. Thus, the inverse, 1/EC50, can be used to quantify the antiradical power.
Solutions of DPPH and the antioxidants in ethanol are prepared separately and added together for starting the reaction (0.5 cm^3 of a 250 μM antioxidant solution is added to 2.5 cm^3 of a 100 μM DPPH solution). The absorption is measured using a Perkin Elmer Lambda 20 spectrophotometer.

Row | Structure (SMILES) | antioxidant/radical power compared to state-of-the-art antioxidants (101) and (102)
1 | COc1c(O)c(O)cc2c1oc1cc(C)oc(=O)c12 [Compound A-1, 7,8-dihydroxy-6-methoxy-3-methyl-1H-pyrano[4,3-b]benzofuran-1-one] | significantly higher antioxidant/radical power
2 | Cc1cc2oc3cc(O)c(O)cc3c2c(=O)o1 [Compound A-2, 7,8-dihydroxy-3-methyl-1H-pyrano[4,3-b]benzofuran-1-one] | significantly higher antioxidant/radical power
3 | Cl.NCCCCCc1cc2oc3cc(O)c(O)cc3c2c(=O)o1 [Compound A-23] | significantly higher antioxidant/radical power
